Consider 68 sequences from the supplement of paper PMC11208160.

A short description of this series: recombinant UMI read abundance after kanamycin selection (control-corrected) (log10(CPM+1)); higher = more efficient recombination; extreme values may be limits of the assay; sequences stand for … in AGTGCAGAGAAAATCGGCCAGTTTTCTCTGCCTGCAGTCCGCATGCCGTGGGACCCCTTGGGTTCTAACCTGTTGCCTAGATTTATGCAGCGGACTGCCTTTCTCCCAAAGTGATAAACCGG…AGGTTGGTTTCACT; site = the 11-nt donor. A digest of the protocol: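 Values, expressed as log10(CPM+1), derive from recombinant UMI counts converted to CPM, averaged across replicates and scaled by control-derived factors. Plating was with IPTG (0.07 mM) plus kanamycin or unselected, two replicates each. The screen pooled donor and donor-binding-loop pairs for the IS621 bridge recombinase in Escherichia coli.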
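Note: IS621 bridge recombinase in Escherichia coli cells against a fixed T5 target plasmid.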

Consider “TCATTCTCATGGACCGGTTTTCCCGGTAATCCGTATTTGCA (site TCATACTCTTG)”, for which the “recombinant UMI read abundance (log10)” value amounted to 1.25.

As to “TCATTCTCATGGACCGGTTTTCCCGGTAATCCGTATTTGCA (site TCATCCTCTTG)”, the “recombinant UMI read abundance (log10)” value came out at 0.

Regarding “TCATTCTCATGGACCGGTTTTCCCGGTAATCCGTATTTGCA (site TCATGCTCTTG)”, the “recombinant UMI read abundance (log10)” value worked out at 0.00845.

For the sequence “TCATTCTCATGGACCGGTTTTCCCGGTAATCCGTATTTGCA (site TCATTCTCTTG)”, the “recombinant UMI read abundance (log10)” value came to 1.41.

In the case of “TCCAAAGCATGGACCGGTTTTCCCGGTAATCCGTATTTGGA (site TCCAAAGCTTC)”, the “recombinant UMI read abundance (log10)” value turned out to be 0.0225.

On to “TCCAAGTCATGGACCGGTTTTCCCGGTAATCCGTATTTGCC (site TCCAAATCTGG)”, for which the “recombinant UMI read abundance (log10)” value amounted to 0.

As to “TCCAAGTCATGGACCGGTTTTCCCGGTAATCCGTATTTGCC (site TCCAACTCTGG)”, the “recombinant UMI read abundance (log10)” value was found to be 0.

Regarding “TCCAAGTCATGGACCGGTTTTCCCGGTAATCCGTATTTGCC (site TCCAAGTCTGG)”, the “recombinant UMI read abundance (log10)” value came out at 0.

Regarding “TCCAAGTCATGGACCGGTTTTCCCGGTAATCCGTATTTGCC (site TCCAATTCTGG)”, the “recombinant UMI read abundance (log10)” value came to 0.

For the sequence “TCCAATTCATGGACCGGTTTTCCCGGTAATCCGTATTTGAC (site TCCAATTCTGA)”, the “recombinant UMI read abundance (log10)” value was 0.

For the sequence “TCCAATTCATGGACCGGTTTTCCCGGTAATCCGTATTTGAC (site TCCAATTCTGC)”, the “recombinant UMI read abundance (log10)” value came to 0.

Take “TCCAATTCATGGACCGGTTTTCCCGGTAATCCGTATTTGAC (site TCCAATTCTGG)”: the “recombinant UMI read abundance (log10)” value was found to be 0.

Take “TCCAATTCATGGACCGGTTTTCCCGGTAATCCGTATTTGAC (site TCCAATTCTGT)”: the “recombinant UMI read abundance (log10)” value stood at 0.

For the sequence “TCCAATTCATGGACCGGTTTTCCCGGTAATCCGTATTTGCT (site TCCAATTCTAG)”, the “recombinant UMI read abundance (log10)” value was 0.

For “TCCAATTCATGGACCGGTTTTCCCGGTAATCCGTATTTGCT (site TCCAATTCTCG)”, the “recombinant UMI read abundance (log10)” value amounted to 0.

Turning to “TCCAATTCATGGACCGGTTTTCCCGGTAATCCGTATTTGCT (site TCCAATTCTGG)”, the “recombinant UMI read abundance (log10)” value worked out at 0.

Take “TCCAATTCATGGACCGGTTTTCCCGGTAATCCGTATTTGCT (site TCCAATTCTTG)”: the “recombinant UMI read abundance (log10)” value worked out at 0.

Regarding “TCCACCGCATGGACCGGTTTTCCCGGTAATCCGTATTTGGG (site TCCACCGCTCA)”, the “recombinant UMI read abundance (log10)” value turned out to be 0.0369.

Take “TCCACCGCATGGACCGGTTTTCCCGGTAATCCGTATTTGGG (site TCCACCGCTCC)”: the “recombinant UMI read abundance (log10)” value was 0.00928.

Turning to “TCCACCGCATGGACCGGTTTTCCCGGTAATCCGTATTTGGG (site TCCACCGCTCG)”, the “recombinant UMI read abundance (log10)” value amounted to 0.0231.

“TCCACCGCATGGACCGGTTTTCCCGGTAATCCGTATTTGGG (site TCCACCGCTCT)”: the “recombinant UMI read abundance (log10)” value is 0.0189.

“TCCATCGCATGGACCGGTTTTCCCGGTAATCCGTATTTGCG (site TCCAACGCTCG)”: the “recombinant UMI read abundance (log10)” value came out at 0.

Consider “TCCATCGCATGGACCGGTTTTCCCGGTAATCCGTATTTGCG (site TCCACCGCTCG)”, for which the “recombinant UMI read abundance (log10)” value was determined as 0.0339.

Consider “TCCATCGCATGGACCGGTTTTCCCGGTAATCCGTATTTGCG (site TCCAGCGCTCG)”, for which the “recombinant UMI read abundance (log10)” value amounted to 0.047.

For the sequence “TCCATCGCATGGACCGGTTTTCCCGGTAATCCGTATTTGCG (site TCCATCGCTCG)”, the “recombinant UMI read abundance (log10)” value was determined as 0.00801.

Turning to “TCCCAATCATGGACCGGTTTTCCCGGTAATCCGTATTTGTT (site TCCCAATCTAA)”, the “recombinant UMI read abundance (log10)” value came to 0.00639.

For the sequence “TCCCACCCATGGACCGGTTTTCCCGGTAATCCGTATTTGCA (site TCCCACCCTTG)”, the “recombinant UMI read abundance (log10)” value came to 0.

For “TCCCATACATGGACCGGTTTTCCCGGTAATCCGTATTTGGC (site TCCCATACTGC)”, the “recombinant UMI read abundance (log10)” value is 0.

For the sequence “TCCCCCGCATGGACCGGTTTTCCCGGTAATCCGTATTTGCG (site TCCACCGCTCG)”, the “recombinant UMI read abundance (log10)” value came out at 0.00501.

As for “TCCCCCGCATGGACCGGTTTTCCCGGTAATCCGTATTTGCG (site TCCCCCGCTCG)”, the “recombinant UMI read abundance (log10)” value came to 0.0127.

Turning to “TCCCCCGCATGGACCGGTTTTCCCGGTAATCCGTATTTGCG (site TCCGCCGCTCG)”, the “recombinant UMI read abundance (log10)” value worked out at 0.0064.

In the case of “TCCCCCGCATGGACCGGTTTTCCCGGTAATCCGTATTTGCG (site TCCTCCGCTCG)”, the “recombinant UMI read abundance (log10)” value amounted to 0.00786.

Regarding “TCCCCTACATGGACCGGTTTTCCCGGTAATCCGTATTTGCC (site TCCCCTACTGG)”, the “recombinant UMI read abundance (log10)” value came out at 0.

For the sequence “TCCCTTACATGGACCGGTTTTCCCGGTAATCCGTATTTGTA (site TCCCTTACTTA)”, the “recombinant UMI read abundance (log10)” value amounted to 0.0182.

Regarding “TCCCTTGCATGGACCGGTTTTCCCGGTAATCCGTATTTGGT (site TCCCTTGCTAC)”, the “recombinant UMI read abundance (log10)” value was found to be 0.

For the sequence “TCCGACGCATGGACCGGTTTTCCCGGTAATCCGTATTTGCT (site TCCGACGCTAG)”, the “recombinant UMI read abundance (log10)” value turned out to be 0.968.

For the sequence “TCCGGAACATGGACCGGTTTTCCCGGTAATCCGTATTTGCT (site TCCGGAACTAG)”, the “recombinant UMI read abundance (log10)” value is 0.

For the sequence “TCCGGGTCATGGACCGGTTTTCCCGGTAATCCGTATTTGAC (site GGAATCGCTAG)”, the “recombinant UMI read abundance (log10)” value worked out at 0.

Turning to “TCCGGTCCATGGACCGGTTTTCCCGGTAATCCGTATTTGCA (site ACCGGTCCTTG)”, the “recombinant UMI read abundance (log10)” value was found to be 0.

“TCCGGTCCATGGACCGGTTTTCCCGGTAATCCGTATTTGCA (site CCCGGTCCTTG)”: the “recombinant UMI read abundance (log10)” value was determined as 0.

Regarding “TCCGGTCCATGGACCGGTTTTCCCGGTAATCCGTATTTGCA (site GCCGGTCCTTG)”, the “recombinant UMI read abundance (log10)” value came out at 0.

As for “TCCGGTCCATGGACCGGTTTTCCCGGTAATCCGTATTTGCA (site TCCGGTCCTTG)”, the “recombinant UMI read abundance (log10)” value amounted to 0.

In the case of “TCCTACGCATGGACCGGTTTTCCCGGTAATCCGTATTTGCC (site TCCTACGCTGG)”, the “recombinant UMI read abundance (log10)” value was determined as 0.

As for “TCCTCCACATGGACCGGTTTTCCCGGTAATCCGTATTTGGT (site TCCTCCACTAC)”, the “recombinant UMI read abundance (log10)” value worked out at 0.0263.

As to “TCCTCGCCATGGACCGGTTTTCCCGGTAATCCGTATTTGTT (site TCCTCGCCTAA)”, the “recombinant UMI read abundance (log10)” value was 0.0142.

In the case of “TCCTGAACATGGACCGGTTTTCCCGGTAATCCGTATTTGCT (site TCCTGAACTAG)”, the “recombinant UMI read abundance (log10)” value was determined as 0.

For the sequence “TCCTGGCCATGGACCGGTTTTCCCGGTAATCCGTATTTGTA (site TCCTGGCCTTA)”, the “recombinant UMI read abundance (log10)” value was found to be 0.0229.

“TCCTTACCATGGACCGGTTTTCCCGGTAATCCGTATTTGGA (site TCCTTACCTTC)”: the “recombinant UMI read abundance (log10)” value is 0.00485.

For “TCCTTCGCATGGACCGGTTTTCCCGGTAATCCGTATTTGCT (site GATCCACCTTC)”, the “recombinant UMI read abundance (log10)” value was 0.0105.

With “TCGAAAACATGGACCGGTTTTCCCGGTAATCCGTATTTGCT (site ACGAAAACTAG)”, the “recombinant UMI read abundance (log10)” value came to 0.

“TCGAAAACATGGACCGGTTTTCCCGGTAATCCGTATTTGCT (site CCGAAAACTAG)”: the “recombinant UMI read abundance (log10)” value amounted to 0.679.

As for “TCGAAAACATGGACCGGTTTTCCCGGTAATCCGTATTTGCT (site GCGAAAACTAG)”, the “recombinant UMI read abundance (log10)” value came to 0.

In the case of “TCGAAAACATGGACCGGTTTTCCCGGTAATCCGTATTTGCT (site TCGAAAACTAG)”, the “recombinant UMI read abundance (log10)” value was found to be 0.

With “TCGAAGTCATGGACCGGTTTTCCCGGTAATCCGTATTTGCG (site TCGAAGTCTCG)”, the “recombinant UMI read abundance (log10)” value is 1.9.

For the sequence “TCGACGGCATGGACCGGTTTTCCCGGTAATCCGTATTTGAC (site TCGACGGCTGT)”, the “recombinant UMI read abundance (log10)” value came to 0.0562.

Turning to “TCGACGGCATGGACCGGTTTTCCCGGTAATCCGTATTTGTG (site TCGACGGCTCA)”, the “recombinant UMI read abundance (log10)” value came to 0.539.

As to “TCGATAGCATGGACCGGTTTTCCCGGTAATCCGTATTTGGG (site TCGATAGCTCC)”, the “recombinant UMI read abundance (log10)” value is 0.00329.

For “TCGATGGCATGGACCGGTTTTCCCGGTAATCCGTATTTGCC (site TCGATGGCTGG)”, the “recombinant UMI read abundance (log10)” value is 0.

“TCGATGTCATGGACCGGTTTTCCCGGTAATCCGTATTTGTA (site TCGATGTCTTA)”: the “recombinant UMI read abundance (log10)” value turned out to be 1.41.

“TCGATGTCATGGACCGGTTTTCCCGGTAATCCGTATTTGTG (site TCGATGTCTCA)”: the “recombinant UMI read abundance (log10)” value is 0.868.

With “TCGCAAACATGGACCGGTTTTCCCGGTAATCCGTATTTGCC (site TCGCAAACTGG)”, the “recombinant UMI read abundance (log10)” value came out at 0.

In the case of “TCGCAACCATGGACCGGTTTTCCCGGTAATCCGTATTTGTT (site TCGCAACCTAA)”, the “recombinant UMI read abundance (log10)” value turned out to be 0.

As to “TCGCATGCATGGACCGGTTTTCCCGGTAATCCGTATTTGGT (site TCGCATGCTAC)”, the “recombinant UMI read abundance (log10)” value is 0.656.

With “TCGCCAGCATGGACCGGTTTTCCCGGTAATCCGTATTTGTG (site TCGCCAGCTCA)”, the “recombinant UMI read abundance (log10)” value stood at 0.0192.

For “TCGCCATCATGGACCGGTTTTCCCGGTAATCCGTATTTGTT (site TCGCCATCTAA)”, the “recombinant UMI read abundance (log10)” value was determined as 0.0036.

For “TCGCCTTCATGGACCGGTTTTCCCGGTAATCCGTATTTGGT (site TAGCCTTCTAC)”, the “recombinant UMI read abundance (log10)” value was 0.0118.

For “TCGCCTTCATGGACCGGTTTTCCCGGTAATCCGTATTTGGT (site TCGCCTTCTAC)”, the “recombinant UMI read abundance (log10)” value stood at 0.00817.

In the case of “TCGCCTTCATGGACCGGTTTTCCCGGTAATCCGTATTTGGT (site TGGCCTTCTAC)”, the “recombinant UMI read abundance (log10)” value came out at 0.00543.
